Test results: patent US20120316144A1, “ANTIFUNGAL AGENT” (priority 2010, published 2012)

Legend:
Malassezia [1] = assay: Antifungal (Malassezia) paper disk test of fractionated ingredients of mastic normal-hexane extract with squalene; type: cell-based; conditions: for diameter of antiproliferative circle, First time / diameter of antiproliferative circle, Second time / diameter of antiproliferative circle, Average: Malassezia, Mueller-Hinton media, fraction 5 mg/disk + squalene 25 mg/disk; for diameter of antiproliferative circle, Average: average of two runs; for anti-Malassezia activity (in words): combination with squalene, summary of Table 4
Experimental: The fractions fractionated in the first example were respectively dissolved in acetone. Paper disks for antibiotic assay which are the same as the paper disks for antibiotic assay used in the third example were impregnated with the obtained respective fraction solutions of 5 mg/disk. Moreover, squalene was added to each of the paper disks for antibiotic assay by 25 mg/disk, to prepare disks to be tested. Then, the respective disks to be tested were vacuum-dried to eliminate the acetone. Further, the Malassezia prepared to be approximately 10^6 CFU/ml was applied to the Mueller-Hinton media. Next, the respective disks to be tested were placed on the Mueller-Hinton media, and cultured for two days under an aerobic condition at 37° C. Then, the diameters (mm) of antiproliferative circles formed around the respective disks to be tested were measured.

Malassezia [2] = assay: Antifungal (Malassezia) paper disk test of mastic normal-hexane extract and squalene; type: cell-based; conditions: Mueller-Hinton media, squalene 25 mg/disk alone
Experimental: Mastic normal-hexane extract (MH) was dissolved in acetone. Then, paper disks for antibiotic assay which are the same as the paper disks for antibiotic assay used in the third example were impregnated with the obtained MH solution, to prepare a disk to be tested impregnated with the MH solution of 5 mg/disk, a disk to be tested impregnated with the MH solution of 10 mg/disk, and a disk to be tested impregnated with the MH solution of 20 mg/disk. These disks to be tested were prepared two each, respectively. Further, the S solution, which was obtained by dissolving squalene (S) in acetone, was added to each of some disks to be tested prepared in this way by 25 mg/disk, to prepare disks of mixture of the mastic normal-hexane extract and squalene (MH+S) as well. Further, as standard controls, paper disks for antibiotic assay which are the same as the paper disks for antibiotic assay used in the third example were impregnated with the S solution of 25 mg/disk, to prepare a disk to be tested. Then, the respective disks to be tested were vacuum-dried to eliminate the acetone. Further, the Malassezia prepared to be approximately 10^6 CFU/ml was applied to the Mueller-Hinton media. […] Then, the diameters (mm) of antiproliferative circles formed around the respective disks to be tested were measured.

| SMILES | diameter of antiproliferative circle, First time (Malassezia [1]) | diameter of antiproliferative circle, Second time (Malassezia [1]) | diameter of antiproliferative circle, Average (Malassezia [1]) | anti-Malassezia activity (in words) (Malassezia [1]) | Antiproliferative Circles (mm) (Malassezia [2]) |
| --- | --- | --- | --- | --- | --- |
| CC1(C)C=C2C(=CC[C@]3(C)C2CC[C@@H]2[C@@]4(C)CCC(=O)C(C)(C)[C@@H]4CC[C@]23C)CC1 (stereo partly shown) [Fr. 1, 3-oxo-28-norolean-16,18-diene] | 25 mm | 22 mm | 23.5 mm | potent anti-Malassezia activity | – |
| CC1(C)CC[C@]2(C=O)CC[C@]3(C)C(=CC[C@@H]4[C@@]5(C)CCC(=O)C(C)(C)[C@@H]5CC[C@]43C)C2C1 (stereo partly shown) [Fr. 3, olean-12-en-3,28-dione] | 25 mm | 25 mm | 25 mm | potent anti-Malassezia activity | – |
| CC(C)=CCC[C@H](C)[C@@H]1CC[C@]2(C)C3=C(CC[C@@]12C)[C@@]1(C)CC[C@H](O)C(C)(C)[C@@H]1CC3 [Fr. 5-1, Tirucallol] | – | – | – | potent anti-Malassezia activity | – |
| CC1(C)CC[C@]2(C)CC[C@]3(C)C(=CC[C@@H]4[C@@]5(C)CC[C@H](O)C(C)(C)[C@@H]5CC[C@]43C)C2C1 (stereo partly drawn) [Fr. 5-2, β-amylin] | – | – | – | potent anti-Malassezia activity | – |
| CC1(C)CCC2(O)CC[C@]3(C)C(=CC[C@@H]4[C@@]5(C)CCC(=O)C(C)(C)[C@@H]5CC[C@]43C)C2C1 (stereo partly shown) [Fr. 6, 3-oxo-17-hydroxy-norolean-12-ene] | 21 mm | 19 mm | 20 mm | potent anti-Malassezia activity | – |
| CC(C)=CCC[C@](C)(O)[C@H]1CC[C@]2(C)C1CCC1[C@@]3(C)CCC(=O)C(C)(C)[C@@H]3CC[C@]12C (stereo partly shown) [Fr. 8, 3-oxo-20-hydroxy-dammar-24-ene] | 25 mm | 24 mm | 24.5 mm | potent anti-Malassezia activity | – |
| CC(C)=CCC/C(C)=C/CC/C(C)=C/CC/C=C(\C)CC/C=C(\C)CCC=C(C)C [S, squalene] | – | – | – | – | 11 mm |
